Reference: PMC4232212 (Clinical cancer research : an official journal of the …, 2009)

Legend:
[1] = target: T1, CXCR1 (Homo sapiens, UniProt P25024); assay: Ki calculated from IC50 by the Cheng-Prusoff equation; type: binding; conditions: read-out: KiCXCR1 (nmol/L)
T1 sequence (P25024 1-350): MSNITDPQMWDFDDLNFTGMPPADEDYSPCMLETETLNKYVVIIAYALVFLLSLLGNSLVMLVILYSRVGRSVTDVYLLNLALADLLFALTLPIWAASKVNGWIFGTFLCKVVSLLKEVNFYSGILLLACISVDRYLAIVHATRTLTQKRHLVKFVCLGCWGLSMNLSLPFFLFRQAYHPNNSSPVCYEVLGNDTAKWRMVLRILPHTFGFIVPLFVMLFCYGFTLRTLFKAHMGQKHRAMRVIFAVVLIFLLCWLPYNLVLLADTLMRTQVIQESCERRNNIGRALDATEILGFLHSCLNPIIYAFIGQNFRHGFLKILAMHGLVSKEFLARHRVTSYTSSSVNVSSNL

[2] = target: T2, CXCR2 (Homo sapiens, UniProt P25025); assay: as above; type: binding; conditions: read-out: KiCXCR2 (nmol/L)
T2 sequence (P25025 1-360): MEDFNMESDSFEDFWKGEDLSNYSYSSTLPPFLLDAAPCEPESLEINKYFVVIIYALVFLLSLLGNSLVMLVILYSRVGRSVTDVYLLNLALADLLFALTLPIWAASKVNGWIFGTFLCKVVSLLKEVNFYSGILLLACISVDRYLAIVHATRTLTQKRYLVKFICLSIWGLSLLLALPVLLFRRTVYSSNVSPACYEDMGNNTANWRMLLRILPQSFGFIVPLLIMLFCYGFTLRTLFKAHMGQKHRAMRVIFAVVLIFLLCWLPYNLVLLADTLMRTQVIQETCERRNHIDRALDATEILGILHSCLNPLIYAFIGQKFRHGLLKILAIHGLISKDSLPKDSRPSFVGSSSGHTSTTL

Ki [1]: 7 nmol/L
Ki [2]: 0.17 nmol/L
Substance: SCH-479833
